# According to PMC5727127, “H3K14ac is linked to methylation of H3K9 by the triple Tudor domain of SETDB1” (Nature Communications, 2017):
# Experiments:
# [1] = biological target: T1, SETDB1 3TD W358A (TD3) (Homo sapiens, UniProt Q15047, W358A); experiment: ITC binding of 3TD W358A to H3 peptides; settings: W358A vs wildtype
# T1 construct: cloned into the pET28a-MHL (residues 190–410), pGEX6P2, and pGEX-4T-1 (residues 197–403) vectors; 6×His; made in house; host or cells: E. coli BL21 derivative (SGC) with pRARE
# Protocol: (§1) ITC experiments were carried out at 25 °C on a VP-ITC calorimeter (MicroCal). Protein and peptide were kept in an identical buffer of 20 mM Tris/HCl pH 7.0 and 150 mM NaCl. ITC measurements were carried out with protein and ligand concentrations ranging from 50 to 100 μM and 1–2 mM, respectively. Binding isotherms were analyzed by nonlinear least-squares fitting of the data using Microcal ORIGIN software (Microcal) using a one-site binding model.
# [2] = test system: SETDB1 3TD, GST-tagged, wildtype; experiment: Modified histone peptide array binding of 3TD wildtype; settings: GST-tagged 3TD, modified histone peptide arrays
# Protocol: (§2) Experiments to determine the binding specificity of 3TD wildtype and mutants were performed using CelluSpots peptide arrays (MODified Histone Peptide Array, Active Motif), as described previously, in 20 mM HEPES pH 7.5, 100 mM KCl, 1 mM EDTA, 0.2 mM DTT, and 10% glycerol. All peptide array binding studies were conducted at least in two technical repeats. Annotations of all spots are given in Supplementary Table 2. The amounts of GST-fused Tudor proteins used in peptide array binding and western blot analyses ranged from 0.5 to 100 nM. For methylation analysis, MODified Histone Peptide arrays (Active Motif) were incubated with 20 nM SETDB1 in buffer (50 mM Tris/HCl pH 9.0, 4 mM DTT, 5 mM MgCl2) supplemented with 0.38 µM radioactively labeled [methyl-3H]-AdoMet (Perkin Elmer) for 2 h at room temperature. The arrays were then washed 5 times with wash buffer (100 mM NH4HCO3 and 1% SDS), incubated in Amplify NAMP100 (GE Healthcare) for 5 min, and then exposed to Hyperfilm TM ECL high-performance chemiluminescence film (GE Healthcare) in the dark at −80 °C for 1–7 days.
# [3] = test system: SETDB1 3TD Y268A; experiment: Modified histone peptide array binding of 3TD Y268A; settings: Y268A vs wildtype; peptide array and ITC assays
# Protocol: as §2
# [4] = test system: SETDB1 3TD W358A; experiment: Modified histone peptide array binding of 3TD W358A; settings: W358A vs wildtype
# Protocol: as §2
# [5] = test system: SETDB1 3TD F332A; experiment: Modified histone peptide array binding of 3TD F332A; settings: replacement of F332 by alanine; peptide array and ITC
# Protocol: as §2
# [6] = biological target: T2, SETDB1 3TD Y268A (TD2) (Homo sapiens, UniProt Q15047, Y268A); experiment: ITC binding of 3TD Y268A to H3 peptides; settings: Fig. 2c, Y268A relative to wildtype
# T2 construct: cloned into the pET28a-MHL (residues 190–410), pGEX6P2, and pGEX-4T-1 (residues 197–403) vectors; 6×His; made in house; host or cells: E. coli BL21 derivative (SGC) with pRARE
# Protocol: as §1
# [7] = biological target: T3, SETDB1 3TD, wildtype (Homo sapiens, UniProt Q15047); experiment: NMR chemical shift perturbation binding to 3TD; settings: 15N HSQC, 25 °C, pH 7.0, 150 mM NaCl
# T3 construct: cloned into the pET28a-MHL (residues 190–410), pGEX6P2, and pGEX-4T-1 (residues 197–403) vectors; 6×His; made in house; host or cells: E. coli BL21 derivative (SGC) with pRARE
# Protocol: NMR experiments were collected on a Bruker Avance 500-MHz spectrometer equipped with a cryogenic probe. Chemical shift perturbation experiments were carried out using uniformly ^15N-labeled wildtype 3TD protein in 20 mM Tris/HCl pH 7.0 and 150 mM NaCl. ^1H, ^15N HSQC spectra were recorded at 25 °C in the presence of increasing concentrations of histone tail peptides. K d values were calculated by a nonlinear least-squares analysis in Kaleidagraph using the equation Δδ=ΔδmaxcL+cP+Kd-cL+cP+Kd^2-4cLcP∕2cP, where c L is the concentration of the peptide, c P is the concentration of the protein, Δδ is the observed normalized chemical shift change, and Δδ max is the normalized chemical shift change at saturation, calculated as Δδ=ΔδH^2+ΔδN∕5^2, where δ is the chemical shift in p.p.m.
# Supplementary Figure 1: Peptide binding of 3TD. (a) Titration of 3TD binding to peptide arrays. Note the specific binding to H3K9me1/2/3-K14ac double modified […]
# concentration (100 nM). (b) ITC analysis of 3TD binding to single modified H3 tail […]
# peptides. (c) NMR chemical shift perturbation experiments carried out to detect potentially weak binding of 3TD to H3K14ac, H3K9me3 and unmodified H3. Weak binding of H3K14ac could be detected and the […]
# H3 was observed. Panel a relates to Fig. 1, panels b and c to Fig. 2.
# (1 picture or pasted object on this page, not shown here)
# [8] = test system: HEK293 cells; experiment: Western blot of histone modifications after HDAC inhibitor treatment; type: cell-based, human; settings: HEK293, 48 h, 0.4 mM TSA or 5 mM sodium butyrate; for K9 methylation content of H3 from treated cells: western blot anti-K9me; for H3K14ac signal of H3 from treated cells: western blot anti-K14ac
# Protocol: (§3) Native histones were isolated by acid extraction[55] from HEK293 cells, and recombinant histone H3 was purchased from New England Biolabs. For the experiment with HDAC inhibitors, cells were treated for 48 h with 0.4 mM TSA or 5 mM sodium butyrate. Five micrograms of native histones and matching amount of recombinant H3 were electrophoresed on 18% SDS-PAGE and transferred onto nitrocellulose membranes. The membrane was then blocked in 5% milk in TBST and incubated with purified GST-tagged 3TD, followed by the anti-GST (GE Healtcare 27457701A, dilution 1:5000) and anti-goat antibody (Sigma A4174, dilution 1:10000). The amount of GST-fused Tudor protein used in western blot analyses was 100 nM. All experiments were performed in duplicates or triplicates. In the western blots, following antibodies were used: anti-K14ac (Millipore MABE351, dilution for checking specificity: 1:2000 or 1:1000; for western blot: 1:500), anti-H3K9me3 (Abcam ab8898, dilution 1:2000), anti-H3K9me2 (Abcam ab1220, dilution 1:1000), and anti-H3K4me3 (Abcam ab8580, dilution 1:2000). For specificity analysis of antibodies, see Supplementary Fig. 13. Secondary antibodies were anti-rabbit IgG HRP (GE Healtcare NA934, dilution 1:5000) and anti-mouse IgG HRP (GE Healtcare NXA931, dilution 1:5000). Native histone and nucleosome pull-down experiments were done at least in two biological repeats. All antibodies were used following the manufacturer’s recommendations. Uncropped gel images are shown in Supplementary Fig. 14.
# [9] = test system: HEK293 cells; experiment: Far-western blot of 3TD binding to histones from HDAC inhibitor treated cells; type: cell-based, human; settings: HEK293, 48 h, 0.4 mM TSA or 5 mM sodium butyrate, 100 nM GST-3TD
# Protocol: as §3, with “All antibodies were used following the manufacturer’s recommendations. Uncropped gel images are shown in Supplementary Fig. 14.” left out
Compound,"peptide array binding, 3TD [2]","change of binding, Y268A [3]","change of peptide array binding, W358A [4]","fold reduction of affinity, W358A [1] [fold]",K9 methylation content of H3 from treated cells [8],H3K14ac signal of H3 from treated cells [8],3TD binding to histones from treated cells [9],further results
CNCCCC[C@H](NC(=O)[C@H](CCCNC(=N)N)NC(=O)[C@H](C)NC(=O)[C@@H](NC(=O)[C@H](CCC(N)=O)NC(=O)[C@@H](N)CCCCN)[C@@H](C)O)C(=O)N[C@@H](CO)C(=O)N[C@H](C(=O)NCC(=O)NCC(=O)N[C@@H](CCCCNC(C)=O)C(=O)N[C@@H](C)C(=O)N1CCC[C@H]1C(=O)N[C@@H](CCCNC(=N)N)C(=O)N[C@@H](CCCCN)C(=O)N[C@@H](CCC(N)=O)C(=O)O)[C@@H](C)O [H3K9me1/K14ac],strong and selective binding,not affected,loss,–,–,–,–,"loss of binding in ITC, W358A [1]: completely lost"
CC(=O)NCCCC[C@H](NC(=O)CNC(=O)CNC(=O)[C@@H](NC(=O)[C@H](CO)NC(=O)[C@H](CCCCN(C)C)NC(=O)[C@H](CCCNC(=N)N)NC(=O)[C@H](C)NC(=O)[C@@H](NC(=O)[C@H](CCC(N)=O)NC(=O)[C@@H](N)CCCCN)[C@@H](C)O)[C@@H](C)O)C(=O)N[C@@H](C)C(=O)N1CCC[C@H]1C(=O)N[C@@H](CCCNC(=N)N)C(=O)N[C@@H](CCCCN)C(=O)N[C@@H](CCC(N)=O)C(=O)O [H3K9me2/K14ac],strong and selective binding,not affected,strong reduction in binding,18,–,–,–,"change of binding, F332A [5]: strong reduction in affinity"
CC(=O)NCCCC[C@H](NC(=O)CNC(=O)CNC(=O)[C@@H](NC(=O)[C@H](CO)NC(=O)[C@H](CCCC[N+](C)(C)C)NC(=O)[C@H](CCCNC(=N)N)NC(=O)[C@H](C)NC(=O)[C@@H](NC(=O)[C@H](CCC(N)=O)NC(=O)[C@@H](N)CCCCN)[C@@H](C)O)[C@@H](C)O)C(=O)N[C@@H](C)C(=O)N1CCC[C@H]1C(=O)N[C@@H](CCCNC(=N)N)C(=O)N[C@@H](CCCCN)C(=O)N[C@@H](CCC(N)=O)C(=O)O [H3K9me3/K14ac],strong and selective binding,clear reduction in affinity,only moderately reduced,2,–,–,–,"relative binding affinity, Y268A [6]: specific loss in binding"
C[C@H](NC(=O)[C@@H](NC(=O)[C@H](CCC(N)=O)NC(=O)[C@@H](N)CCCCN)[C@@H](C)O)C(=O)N[C@@H](CCCNC(=N)N)C(=O)N[C@@H](CCCC[N+](C)(C)C)C(=O)N[C@@H](CO)C(=O)N[C@H](C(=O)NCC(=O)NCC(=O)N[C@@H](CCCCN)C(=O)N[C@@H](C)C(=O)N1CCC[C@H]1C(=O)N[C@@H](CCCNC(=N)N)C(=O)N[C@@H](CCCCN)C(=O)N[C@@H](CCC(N)=O)C(=O)O)[C@@H](C)O [H3K9me3],–,–,–,–,–,–,–,binding detected by NMR [7]: no detectable binding
CCCC(=O)[O-].[Na+] [sodium butyrate],–,–,–,–,did not change,increased H3K14ac signal,increased 3TD binding,–
CC(/C=C/C(=O)NO)=C\[C@@H](C)C(=O)c1ccc(N(C)C)cc1 [trichostatin A],–,–,–,–,did not change,increased H3K14ac signal,increased 3TD binding,–
